From article PMC7997574, “Lead Optimization of Benzoxazolone Carboxamides as Orally Bioavailable and CNS Penetrant Acid Ceramidase Inhibitors” (Journal of Medicinal Chemistry, 2020) come the findings set out here.

Converted amounts (≈) assume the structure as drawn. Where two headings read alike, the source gives them in different places. Where only a bound is given, the exact number is not on record here.

The nature of data set [1]: Aqueous kinetic solubility assay. Type of data set: physicochemical. The following applies: PBS, pH 7.4. The procedure:
The aqueous kinetic solubility was determined from a 10 mM MeCN stock solution of test compound in Phosphate-Buffered Saline (PBS) at pH 7.4. The study was performed by incubation of an aliquot of 10 mM MeCN stock solution in PBS (pH 7.4) at a target concentration of 250 μM. The incubation was carried out under shaking at 25 °C for 1 h followed by centrifugation at 21100 × g for 30 min. The supernatant was analyzed by UPLC/MS for the quantification of the dissolved compound (in μM) by UV at a specific wavelength (215 nm). […] The UPLC/MS analyses were performed on a Waters ACQUITY UPLC/MS system consisting of a single quadrupole detector (SQD) Mass Spectrometer (MS) equipped with an Electrospray Ionization (ESI) interface and a Photodiode Array Detector (PDA). The PDA range was 210–400 nm. ESI in positive mode was used in the mass scan range of 100–650 Da. The analyses were run on an ACQUITY UPLC BEH C18 column (50 × 2.1 mm ID, particle size 1.7 μm) with a VanGuard BEH C18 precolumn (5 × 2.1 mm ID, particle size 1.7 μm), using 10 mM NH4OAc in H2O at pH 5 adjusted with AcOH (A) and 10 mM NH4OAc in MeCN/H2O (95:5) at pH 5 (B) as the mobile phase. Values are reported as mean values of ≥2 experiments performed.

Data set [2] has as its target T1, AC (Homo sapiens, UniProt Q13510).
T1 sequence (Q13510 22-395): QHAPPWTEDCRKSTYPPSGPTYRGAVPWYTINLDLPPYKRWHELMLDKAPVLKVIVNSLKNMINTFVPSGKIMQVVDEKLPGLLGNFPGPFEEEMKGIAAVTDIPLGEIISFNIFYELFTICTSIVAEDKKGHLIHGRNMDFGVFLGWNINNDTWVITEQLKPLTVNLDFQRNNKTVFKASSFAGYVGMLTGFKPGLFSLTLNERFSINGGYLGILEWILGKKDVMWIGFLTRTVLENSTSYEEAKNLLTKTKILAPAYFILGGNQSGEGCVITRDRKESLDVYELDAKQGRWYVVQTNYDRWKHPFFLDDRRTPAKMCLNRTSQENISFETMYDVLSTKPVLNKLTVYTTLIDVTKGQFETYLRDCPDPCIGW
As to the kind of experiment: Fluorogenic hAC assay on hAC-enriched lysate of HEK293 cells. Type of data set: biochemical. Also on record: expressed in transfected cells. The procedure:
HEK293 cells stably expressing hAC were grown in Dulbecco’s modified Eagle medium (DMEM) containing 10% FBS, 1% glutamine, 1 mM sodium pyruvate, and 500 μg mL^–1 G418. Cells were harvested, and pellets were stored at −80 °C until lysosomal-enriched lysate preparation. Cells were suspended in 20 mM Tris HCl (pH 7.5) with 0.32 M sucrose, sonicated, and centrifuged at 800 × g for 30 min at 4 °C. Supernatants were then centrifuged at 12000 × g for 30 min at 4 °C. Pellets were resuspended in PBS (pH 7.4) and subjected to three freeze–thaw cycles at −80 °C. The suspension was finally centrifuged at 105000 × g for 1 h at 4 °C, and protein concentration was measured in the supernatant with the bicinchoninic acid based protein assay. This hAC-enriched preparation allowed us to further optimize the enzymatic assay and to use small amounts of lysate (2 μg per well) at a 5 μM substrate (Rbm14–12) around its KM (KM = 5.0 μM).
The assay was performed in Optiplate 96-well black plates, with each reaction well containing a mixture of 25 mM NaOAc buffer (pH 4.5) and a fixed amount of protein (2 μg) in a volume of 85 μL. After 10 min of preincubation with test compounds (diluted 20× from DMSO stock solutions at different concentrations), the fluorogenic probe was added (diluted 40× from EtOH stock solution, final concentration 5 μM). After 3 h of incubation at 37 °C, reactions were stopped with 50 μL of MeOH and 100 μL of a 2.5 mg mL^–1 NaIO4 fresh solution in 100 mM glycine/NaOH buffer (pH 10.6). The plates were further incubated for 2 h at 37 °C in the dark, and fluorescence intensities were measured at excitation/emission wavelengths of 355/460 nm. Negative control samples consisted of the same incubation mixture in the absence of protein-enriched extracts. Data were plotted as a function of compound concentrations. IC50 values were calculated by nonlinear regression analysis using GraphPad Prism 5 (GraphPad Software Inc., CA, USA) applying a standard slope curve fitting. The reported IC50 values are the mean of at least three independent experiments performed in three technical replicates.

Data set [3] can be described thus: In vitro plasma stability study. Type of data set: in vitro ADME. The following applies: mouse plasma; read-out: m-plasma t1/2. The procedure: Freshly prepared 10 mM MeCN stock solution of test compound was diluted 50-fold with DMSO/H2O (1:1) and incubated at 37 °C for 2 h with mouse plasma added in 5% DMSO (preheated at 37 °C for 10 min). The final concentration was 2 μM. At each time point (0, 5, 15, 30, 60, and 120 min), 50 μL of incubation mixture was diluted with 200 μL of cold MeCN spiked with 200 nM internal standard followed by centrifugation at 3300 × g for 20 min. The supernatant was further diluted with H2O (1:1) for analysis. The concentration of test compound was quantified by LC/MS/MS on a Waters ACQUITY UPLC/MS TQD system consisting of a TQD MS equipped with an ESI interface. The analyses were run on an ACQUITY UPLC BEH C18 (50 × 2.1 mm ID, particle size 1.7 μm) with a VanGuard BEH C18 precolumn (5 × 2.1 mm ID, particle size 1.7 μm) at 40 °C. For each compound, the appropriate mobile phase was chosen. ESI was applied in positive mode. The response factors, calculated on the basis of the internal standard peak area, were plotted over time. When possible, response vs time profiles were fitted with Prism (GraphPad Software, Inc., USA) to estimate compound t1/2 in plasma. Values are the mean of at least two independent experiments performed in two technical replicates.

Data set [4] is described as follows: In vitro microsomal stability study. It is filed as in vitro ADME. Conditions: mouse liver microsomes; for m-LM [% at 60 min]: % remaining at 60 min; for half-life at 4.6 μM / half-life at 1 h, 4.6 µM: pH 7.4, read-out: m-LM t1/2. The procedure: Freshly prepared 10 mM MeCN stock solution of test compound was preincubated at 37 °C for 15 min with mouse liver microsomes added in 0.1 M Tris HCl buffer (pH 7.4). The final concentration was 4.6 μM. After preincubation, the cofactors (NADPH, G6P, G6PDH, and MgCl2 predissolved in 0.1 M Tris HCl) were added to the incubation mixture, and the incubation was continued at 37 °C for 1 h. At each time point (0, 5, 15, 30, and 60 min), 30 μL of incubation mixture was diluted with 200 μL of cold MeCN spiked with 200 nM internal standard followed by centrifugation at 3300 × g for 15 min. The supernatant was further diluted with H2O (1:1) for analysis. The concentration of the test compound was quantified by LC/MS/MS on a Waters ACQUITY UPLC/MS TQD system consisting of a TQD MS equipped with an ESI interface. The analyses were run on an ACQUITY UPLC BEH C18 (50 × 2.1 mm ID, particle size 1.7 μm) with a VanGuard BEH C18 precolumn (5 × 2.1 mm ID, particle size 1.7 μm) at 40 °C. For each compound, the appropriate mobile phase was chosen. ESI was applied in positive mode. The percentage of test compound remaining at each time point relative to t = 0 was calculated. t1/2 was determined by a one-phase decay equation using a nonlinear regression of compound concentration vs time. Values are the mean of at least two independent experiments performed in two technical replicates.

The mark [5] stands for this setting: hAC expressed in HEK-293 cells, read-out: hAC IC50 (μM)±SD.

Compound `Cl.O=C(NCCCCc1ccccc1)n1c(=O)oc2cc(C3CCNCC3)ccc21` [22d, 2-Oxo-N-(4-phenylbutyl)-6-(4-piperidyl)-1,3-benzoxazole-3-carboxamide Hydrochloride] yielded a solubility at 1 h in data set [1] of 150 µM. In addition, in data set [2] (setting [5]), the IC50 came to 0.134 ± 0.014 µM. In addition, in data set [3], the half-life at 2 µM is 60 min. Also, in data set [4], the “m-LM [% at 60 min]” value was determined as 70% and the half-life at 4.6 μM is above 60 min.
`CN1CCC(c2ccc3c(c2)oc(=O)n3C(=O)NCCCCc2ccc(F)cc2)CC1` [22o, N-[4-(4-Fluorophenyl)butyl]-6-(1-methyl-4-piperidyl)-2-oxo-1,3-benzoxazole-3-carboxamide] displayed a solubility at 1 h in data set [1] of 22 µM (≈ 9.36 µg/mL). The 50% inhibitory concentration (IC50) in data set [2] (setting [5]) stood at 0.094 ± 0.03 µM. Further, the half-life at 2 µM in data set [3] worked out at 20 min. For the same compound, the half-life at 1 h, 4.6 µM in data set [4] was 30 min.
In the case of `CC(C)CNC(=O)n1c(=O)oc2cc(C3CCCCN3C)ccc21` (racemic) [compound 26, (±)-N-Isobutyl-6-(1-methyl-2-piperidyl)-2-oxo-1,3-benzoxazole-3-carboxamide], the concentration in solution in data set [1] (solubility at 1 h) came to 190 µM (≈ 63 µg/mL). In addition, the IC50 amounted to 1.01 ± 0.432 µM in data set [2] (setting [5]) and 1.19 ± 0.435 µM in data set [2] (supplementary csv, read-out: hAC, IC50). Moreover, the half-life at 2 µM in data set [3] amounted to 30 min. Besides, in data set [4], the half-life at 1 h, 4.6 µM amounted to 15 min.
Take `CC(C)CN1CCC(c2ccc3c(c2)oc(=O)n3C(=O)NCCCCc2ccccc2)CC1` [22h, 6-(1-Isobutyl-4-piperidyl)-2-oxo-N-(4-phenylbutyl)-1,3-benzoxazole-3-carboxamide]: the solubility at 1 h in data set [1] is below 1 µM. Also, the IC50 in data set [2] (setting [5]) was 0.12 ± 0.03 µM. Besides, the half-life at 2 μM in data set [3] turned out to be 60 min. For the same compound, in data set [4], the half-life at 4.6 μM is 60 min.
Turning to `CCCCCNC(=O)n1c(=O)oc2cc(C3CCN(C)CC3)ccc21` [22k, 6-(1-Methyl-4-piperidyl)-2-oxo-N-pentyl-1,3-benzoxazole-3-carboxamide], the solubility at 1 h in data set [1] worked out at 240 µM (≈ 82.9 µg/mL). For the same compound, the IC50 in data set [2] (setting [5]) was 0.396 ± 0.075 µM. For the same compound, in data set [3], the half-life at 2 µM is 75 min and the half-life at 2 μM is above 60 min. In addition, in data set [4], the “m-LM [% at 60 min]” value was >60 [60%] and the half-life at 4.6 μM was above 60 min.
On to `CN1CCC(c2ccc3c(c2)oc(=O)n3C(=O)NCCCCc2ccccc2)CC1=O` (centres unmarked) [22q, 6-(1-Methyl-2-oxo-4-piperidyl)-2-oxo-N-(4-phenylbutyl)-1,3-benzoxazole-3-carboxamide], for which the solubility at 1 h in data set [1] is 20 µM (≈ 8.43 µg/mL). Besides, in data set [2] (setting [5]), the IC50 amounted to 0.105 ± 0.055 µM. For the same compound, in data set [3], the half-life at 2 µM worked out at 36 min. Also, in data set [4], the half-life at 1 h, 4.6 µM worked out at 35 min.
With `CN1CCN(c2ccc3c(c2)oc(=O)n3C(=O)NCCCCc2ccccc2)C(=O)C1` [23k, 6-(4-Methyl-2-oxo-piperazin-1-yl)-2-oxo-N-(4-phenylbutyl)-1,3-benzoxazole-3-carboxamide], the concentration in solution in data set [1] (solubility at 1 h) was 20 µM (≈ 8.45 µg/mL). Further, the IC50 in data set [2] (setting [5]) was determined as 0.052 ± 0.04 µM. Moreover, the “fold more potent than 23e (hAC)” value in data set [2] (vs 23e hAC IC50 = 0.363 μM) is reported as around 7 fold. The half-life at 2 µM in data set [3] worked out at 20 min. Moreover, the half-life at 4.6 μM in data set [4] was below 5 min.
The compound `Cl.O=C(NCCCCc1ccccc1)n1c(=O)oc2cc(N3CCNCC3)ccc21` [23e, 2-Oxo-N-(4-phenylbutyl)-6-piperazin-1-yl-1,3-benzoxazole-3-carboxamide Hydrochloride] displayed a solubility at 1 h in data set [1] of 20 µM. For the same compound, in data set [2] (setting [5]), the IC50 was found to be 0.363 ± 0.18 µM. In addition, the half-life at 2 µM in data set [3] amounted to 30 min. For the same compound, the half-life at 1 h, 4.6 µM in data set [4] amounted to 45 min.
Turning to `CN1CCN(c2ccc3c(c2)oc(=O)n3C(=O)NCCCCc2ccccc2)CC1` [23f, 6-(4-Methylpiperazin-1-yl)-2-oxo-N-(4-phenylbutyl)-1,3-benzoxazole-3-carboxamide], in data set [1], the solubility at 1 h was below 1 µM. For the same compound, the IC50 in data set [2] (setting [5]) came to 0.116 ± 0.069 µM. The half-life at 2 μM in data set [3] was below 5 min. Also, the half-life at 4.6 μM in data set [4] is below 5 min.
In data set [1], `CC(C)CNC(=O)n1c(=O)oc2ccc(C3CCN(C)CC3)cc21` [24c, N-Isobutyl-5-(1-methyl-4-piperidyl)-2-oxo-1,3-benzoxazole-3-carboxamide] registered a solubility at 1 h of 60 µM (≈ 19.9 µg/mL). For the same compound, the IC50 in data set [2] (setting [5]) amounted to 0.295 ± 0.06 µM. In data set [3], the half-life at 2 µM was determined as 30 min. The half-life at 1 h, 4.6 µM in data set [4] is 40 min.
In the case of `CC(C)N1CCC(c2ccc3c(c2)oc(=O)n3C(=O)NCCCCc2ccccc2)CC1` [22g, 6-(1-Isopropyl-4-piperidyl)-2-oxo-N-(4-phenylbutyl)-1,3-benzoxazole-3-carboxamide], the solubility at 1 h in data set [1] worked out at 50 µM (≈ 21.8 µg/mL). Besides, the IC50 in data set [2] (setting [5]) was 0.094 ± 0.042 µM. In addition, the half-life at 2 µM in data set [3] came out at 40 min. Further, the half-life at 1 h, 4.6 µM in data set [4] is 60 min.
The like results for `CC(C)CNC(=O)n1c(=O)oc2c(C3CCN(C)CC3)cccc21` [compound 25, N-Isobutyl-7-(1-methyl-4-piperidyl)-2-oxo-1,3-benzoxazole-3-carboxamide] were, in that order, 230 µM (≈ 76.2 µg/mL), 0.535 ± 0.073 µM, 40 min and 30 min.
